Reference: PubChem BioAssay (NCI)
Values joined by “and” are separate entries in the source; they are usually repeats but may differ in a detail not shown here. Identical values can stand only once.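 A five-concentration, 48-hour dose response in 96-well plates underlies each endpoint, interpolated linearly between surrounding concentrations. GI50: concentration for 50% inhibition of growth. The concentration for full growth arrest is given as TGI.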

What was measured:
Test in all cases: growth of human tumour cells (NCI), 48 h
HCC-2998 colon = system: HCC-2998 colon
SNB-19 CNS = system: SNB-19 CNS
HT29 colon = system: HT29 colon
CAKI-1 renal = system: CAKI-1 renal
U251 CNS = system: U251 CNS
SK-MEL-5 melanoma = system: SK-MEL-5 melanoma
SN12C renal = system: SN12C renal
OVCAR-3 ovarian = system: OVCAR-3 ovarian
COLO 205 colon = system: COLO 205 colon
A498 renal = system: A498 renal
SF-539 CNS = system: SF-539 CNS
OVCAR-5 ovarian = system: OVCAR-5 ovarian
OVCAR-8 ovarian = system: OVCAR-8 ovarian
RPMI-8226 leukemia = system: RPMI-8226 leukemia
SF-268 CNS = system: SF-268 CNS
NCI/ADR-RES ovarian = system: NCI/ADR-RES ovarian
HCT-116 colon = system: HCT-116 colon
SW-620 colon = system: SW-620 colon
786-0 renal = system: 786-0 renal
UACC-257 melanoma = system: UACC-257 melanoma
SK-OV-3 ovarian = system: SK-OV-3 ovarian
UO-31 renal = system: UO-31 renal
IGROV1 ovarian = system: IGROV1 ovarian
PC-3 prostate = system: PC-3 prostate
MDA-MB-231 breast = system: MDA-MB-231 breast
SF-295 CNS = system: SF-295 CNS
RXF 393 renal = system: RXF 393 renal
T-47D breast = system: T-47D breast
CCRF-CEM leukemia = system: CCRF-CEM leukemia
NCI-H23 lung = system: NCI-H23 lung
KM12 colon = system: KM12 colon
BT-549 breast = system: BT-549 breast
NCI-H226 lung = system: NCI-H226 lung
SK-MEL-2 melanoma = system: SK-MEL-2 melanoma
LOX IMVI melanoma = system: LOX IMVI melanoma
SNB-75 CNS = system: SNB-75 CNS
A549 NSCLC = system: A549 NSCLC
HOP-62 NSCLC = system: HOP-62 NSCLC
DU-145 prostate = system: DU-145 prostate
TK-10 renal = system: TK-10 renal
HCT-15 colon = system: HCT-15 colon
ACHN renal = system: ACHN renal
SK-MEL-28 melanoma = system: SK-MEL-28 melanoma
UACC-62 melanoma = system: UACC-62 melanoma
EKVX NSCLC = system: EKVX NSCLC
NCI-H522 lung = system: NCI-H522 lung
OVCAR-4 ovarian = system: OVCAR-4 ovarian
M14 melanoma = system: M14 melanoma
MDA-MB-435 = system: MDA-MB-435
NCI-H460 lung = system: NCI-H460 lung
HS 578T breast = system: HS 578T breast
MALME-3M melanoma = system: MALME-3M melanoma
MCF7 breast = system: MCF7 breast
HOP-92 NSCLC = system: HOP-92 NSCLC
MOLT-4 leukemia = system: MOLT-4 leukemia
HL-60(TB) leukemia = system: HL-60(TB) leukemia
K-562 leukemia = system: K-562 leukemia
SR leukemia = system: SR leukemia

Q: For Nc1ccc(C(=O)NN2C(=O)[C@H](Cl)C2c2ccc(Cl)cc2)cc1 (stereo not given in full), which TGI (HCC-2998 colon) is on record?
A: Its TGI is 3010 nM.

Q: And the TGI (SNB-19 CNS)?
A: Its TGI is 3690 nM.

Q: What about the TGI (HT29 colon) of the same compound?
A: The TGI was 610 nM.

Q: And the TGI (CAKI-1 renal)?
A: The TGI was 2940 nM.

Q: What about the TGI (U251 CNS) of the same compound?
A: Its TGI is 2260 nM.

Q: What about the TGI (SK-MEL-5 melanoma) of the same compound?
A: The TGI was 4270 nM.

Q: What about the TGI (SN12C renal) of the same compound?
A: The TGI was 2830 nM.

Q: What about the TGI (OVCAR-3 ovarian) of the same compound?
A: Its TGI is 2550 nM.

Q: And the TGI (COLO 205 colon)?
A: Its TGI is 4140 nM.

Q: And the GI50 (A498 renal)?
A: The GI50 was 1620 nM.

Q: What about the TGI (A498 renal) of the same compound?
A: Its TGI is 3210 nM.

Q: What about the TGI (SF-539 CNS) of the same compound?
A: Its TGI is 3600 nM.

Q: And the TGI (OVCAR-5 ovarian)?
A: The TGI was 8230 nM.

Q: What about the TGI (OVCAR-8 ovarian) of the same compound?
A: Its TGI is 3680 nM.

Q: What about the TGI (RPMI-8226 leukemia) of the same compound?
A: Its TGI is 5320 nM.

Q: What about the TGI (SF-268 CNS) of the same compound?
A: The TGI was 1920 nM.

Q: And the TGI (NCI/ADR-RES ovarian)?
A: The TGI was 3830 nM.

Q: And the TGI (HCT-116 colon)?
A: The TGI was 476 nM.

Q: And the TGI (SW-620 colon)?
A: Its TGI is 4960 nM.

Q: What about the TGI (786-0 renal) of the same compound?
A: The TGI was 2600 nM.

Q: What about the TGI (UACC-257 melanoma) of the same compound?
A: Its TGI is 3630 nM.

Q: What about the TGI (SK-OV-3 ovarian) of the same compound?
A: The TGI was 4270 nM.

Q: What about the TGI (UO-31 renal) of the same compound?
A: Its TGI is 4350 nM.

Q: And the TGI (IGROV1 ovarian)?
A: The TGI was 4540 nM.

Q: And the TGI (PC-3 prostate)?
A: Its TGI is 3200 nM.

Q: What about the TGI (MDA-MB-231 breast) of the same compound?
A: Its TGI is 3550 nM.

Q: What about the TGI (SF-295 CNS) of the same compound?
A: Its TGI is 9310 nM.

Q: What about the TGI (RXF 393 renal) of the same compound?
A: The TGI was over 100000 nM.

Q: And the TGI (T-47D breast)?
A: Its TGI is 3880 nM.

Q: And the GI50 (CCRF-CEM leukemia)?
A: Its GI50 is 310 nM.

Q: What about the TGI (CCRF-CEM leukemia) of the same compound?
A: The TGI was 1410 nM.

Q: What about the TGI (NCI-H23 lung) of the same compound?
A: The TGI was 2340 nM.

Q: And the TGI (KM12 colon)?
A: The TGI was 2990 nM.

Q: What about the GI50 (BT-549 breast) of the same compound?
A: The GI50 was 1950 nM.

Q: And the TGI (BT-549 breast)?
A: The TGI was 4900 nM.

Q: And the TGI (NCI-H226 lung)?
A: Its TGI is 2650 nM.

Q: And the TGI (SK-MEL-2 melanoma)?
A: Its TGI is 4370 nM.

Q: And the GI50 (LOX IMVI melanoma)?
A: Its GI50 is 113 nM.

Q: And the TGI (LOX IMVI melanoma)?
A: Its TGI is 233 nM.

Q: And the TGI (SNB-75 CNS)?
A: The TGI was 797 nM.

Q: And the TGI (A549 NSCLC)?
A: The TGI was 8490 nM.

Q: And the TGI (HOP-62 NSCLC)?
A: The TGI was 3120 nM.

Q: What about the TGI (DU-145 prostate) of the same compound?
A: Its TGI is 4060 nM.

Q: What about the TGI (TK-10 renal) of the same compound?
A: Its TGI is 2570 nM.

Q: What about the TGI (HCT-15 colon) of the same compound?
A: The TGI was 2790 nM.

Q: And the TGI (ACHN renal)?
A: The TGI was 2480 nM.

Q: What about the TGI (SK-MEL-28 melanoma) of the same compound?
A: Its TGI is 1800 nM.

Q: What about the TGI (UACC-62 melanoma) of the same compound?
A: The TGI was 3690 nM.

Q: And the TGI (EKVX NSCLC)?
A: Its TGI is 12800 nM.

Q: And the TGI (NCI-H522 lung)?
A: The TGI was over 100000 nM.

Q: What about the TGI (OVCAR-4 ovarian) of the same compound?
A: Its TGI is over 100000 nM.

Q: What about the TGI (M14 melanoma) of the same compound?
A: The TGI was 3110 nM.

Q: What about the TGI (MDA-MB-435) of the same compound?
A: The TGI was 4160 nM.

Q: And the TGI (NCI-H460 lung)?
A: The TGI was over 100000 nM.

Q: And the TGI (HS 578T breast)?
A: Its TGI is 4020 nM.

Q: And the TGI (MALME-3M melanoma)?
A: The TGI was 4130 nM.

Q: Which results are given for COc1ccc2c(c1)NC(=O)CN2c1nc(NC2CC2)nc2ccccc12?
A: GI50 (HCC-2998 colon): 1.06 nM; TGI (HCC-2998 colon): 1420 nM; GI50 (SNB-19 CNS): 1.54 nM; TGI (SNB-19 CNS): 24500 nM; GI50 (HT29 colon): 0.347 nM; TGI (CAKI-1 renal): 17900 nM; GI50 (U251 CNS): 1.06 nM; TGI (U251 CNS): 18400 nM; GI50 (SK-MEL-5 melanoma): 0.552 nM; GI50 (SN12C renal): 4.91 nM; TGI (SN12C renal): > 100000 nM; GI50 (OVCAR-3 ovarian): 0.368 nM; TGI (OVCAR-3 ovarian): 11 nM; GI50 (COLO 205 colon): 0.395 nM; TGI (COLO 205 colon): 2.41 nM; GI50 (A498 renal): 1.85 nM; GI50 (SF-539 CNS): 2.32 nM; TGI (SF-539 CNS): 8.04 nM; TGI (OVCAR-5 ovarian): > 100000 nM; GI50 (OVCAR-8 ovarian): 2.34 nM; TGI (OVCAR-8 ovarian): 46900 nM; GI50 (RPMI-8226 leukemia): 1.82 nM; TGI (RPMI-8226 leukemia): 16400 nM; GI50 (SF-268 CNS): 2.04 nM; TGI (SF-268 CNS): 14400 nM; GI50 (NCI/ADR-RES ovarian): 0.651 nM; TGI (NCI/ADR-RES ovarian): 6.77 nM; GI50 (HCT-116 colon): 0.424 nM; TGI (HCT-116 colon): 13300 nM; GI50 (SW-620 colon): 0.383 nM; TGI (SW-620 colon): > 100000 nM; GI50 (MCF7 breast): 0.386 nM; TGI (MCF7 breast): 14700 nM; GI50 (786-0 renal): 9.05 nM; TGI (786-0 renal): 18600 nM; GI50 (SK-OV-3 ovarian): 1.82 nM; GI50 (UO-31 renal): 31 nM; TGI (UO-31 renal): 10200 nM; TGI (IGROV1 ovarian): 6430 nM; GI50 (PC-3 prostate): 0.563 nM; TGI (PC-3 prostate): > 100000 nM; GI50 (MDA-MB-231 breast): 0.858 nM; TGI (MDA-MB-231 breast): > 100000 nM; GI50 (HOP-92 NSCLC): 2660 nM; TGI (HOP-92 NSCLC): 17500 nM; GI50 (SF-295 CNS): 2.11 nM; TGI (SF-295 CNS): 6.11 nM and 19.1 nM; GI50 (RXF 393 renal): 1.78 nM; GI50 (T-47D breast): 230 nM; TGI (T-47D breast): 7130 nM; GI50 (CCRF-CEM leukemia): 0.385 nM; TGI (CCRF-CEM leukemia): > 100000 nM; GI50 (NCI-H23 lung): 1.12 nM; TGI (NCI-H23 lung): 16200 nM; GI50 (MOLT-4 leukemia): 2.55 nM; TGI (MOLT-4 leukemia): > 100000 nM; GI50 (KM12 colon): 0.396 nM; TGI (KM12 colon): > 100000 nM; GI50 (HL-60(TB) leukemia): 0.503 nM; TGI (HL-60(TB) leukemia): 3.13 nM; GI50 (BT-549 breast): 4.23 nM; TGI (BT-549 breast): 3110 nM; TGI (NCI-H226 lung): > 100000 nM; GI50 (LOX IMVI melanoma): 0.901 nM; TGI (LOX IMVI melanoma): 55500 nM; GI50 (SNB-75 CNS): 1.99 nM; TGI (SNB-75 CNS): 18700 nM; GI50 (A549 NSCLC): 1.28 nM; TGI (A549 NSCLC): > 100000 nM; GI50 (HOP-62 NSCLC): 4.33 nM; TGI (HOP-62 NSCLC): 10500 nM; GI50 (DU-145 prostate): 0.452 nM; TGI (DU-145 prostate): 2830 nM; TGI (TK-10 renal): 14900 nM; GI50 (HCT-15 colon): 0.556 nM; TGI (HCT-15 colon): > 100000 nM; TGI (ACHN renal): > 100000 nM; GI50 (SK-MEL-28 melanoma): 847 nM; TGI (SK-MEL-28 melanoma): > 100000 nM; GI50 (UACC-62 melanoma): 0.876 nM; TGI (UACC-62 melanoma): 13200 nM; GI50 (K-562 leukemia): 0.336 nM; TGI (K-562 leukemia): > 100000 nM; TGI (EKVX NSCLC): 77500 nM; GI50 (SR leukemia): 0.274 nM; TGI (OVCAR-4 ovarian): > 100000 nM; GI50 (M14 melanoma): 0.367 nM; TGI (M14 melanoma): > 100000 nM; GI50 (NCI-H460 lung): 0.405 nM; TGI (NCI-H460 lung): > 100000 nM; GI50 (HS 578T breast): 3.59 nM; TGI (HS 578T breast): 25000 nM; GI50 (MALME-3M melanoma): 2010 nM; TGI (MALME-3M melanoma): 84700 nM
